Read-outs that look alike come from different tables or passages of the source.

The subject of data set [1] is PGE2. The data set is described as follows: Fibroblast PGE2 assay, PMA-induced. The format is cell-based. To be noted: human skin fibroblasts, N=4. As to the method:
Intracellular adhesion molecules (ICAM) and PEG2 production by human skin fibroblasts can be induced by the inflammatory stimulus PMA (phorbal myristate acetate). PMA represents an external stressor which induces oxidative stress and inflammatory responses in cells. This model is used to model inflammation in vivo.
Primary human foreskin fibroblasts at passage 2 (P2) were seeded into 96-well plates at 10000 cells/well and maintained for 24 hours in an atmosphere of 5% carbon dioxide in Dulbeccos Modified Eagles Medium (DMEM) supplemented with 10% foetal calf serum. […] Phorbal myristate acetate (PMA) (Sigma) was added to the media and the cells incubated for a further 24 hours. […] The fibroblasts/media were then analysed as described below immediately or snap frozen in liquid nitrogen and stored at -70°C for future analysis. The cells were then counted and data from the dot-blot analysis subsequently standardised to cell number.
Prostaglandin E2 (PGE2) assay: Volumes of 50 µl culture medium were taken for PGE2 assay after gently shaking the culture plate. PGE2 levels in the medium were determined with a Biotrak PGE2 immunoassay kit (Amersham, UK). The assay is based on the competition between unlabelled PGE2 in the sample and a fixed quantity of horseradish peroxidase labelled PGE2 for a limited amount of fixed PGE2 specific antibody. Concentrations of unlabelled sample PGE2 are determined according to a standard curve which was obtained at the same time.

A further data set deals with decorin. Put plainly: Immunohistochemical analysis of forearm skin biopsies after topical treatment: decorin expression. The format is in vivo, human. Conditions: compared with placebo forearm. An excerpt: (§1) Two groups of women were recruited with identical or nearly identical degrees of mild to moderate photodamage on each outer forearm. They were supplied with 0.05% retinoic acid in a moisturising base (Retinova®) and also with a colour matched moisturising cream with similar sensory characteristics (Dermacare® lotion), but no active ingredients, as a placebo control. Each participant of the two groups applied the Retinova® to one outer forearm and placebo (Dermacare®) to the other outer forearm. Group 1 applied the products daily to their outer forearms for 14 weeks and the Group 2 applied the products to their outer forearms for 28 weeks. At the end of the studies two full thickness 4mm punch biopsies were taken from the treated areas of each forearm. Immunohistochemical analysis of the biopsy tissue taken from the participants was performed to identify the effect of retinoic acid treatment on the expression of the skin extracellular matrix components, decorin and procollagen-I, as compared with the placebo treated forearms. The following procedure was followed:
(§2) Antibody dilution buffer for wax sections was composed of Tris Buffered Saline (TBS), 3% bovine serum albumin (BSA), 0.05% Triton X-100 and 0.05% sodium azide. […]

The next data set has as its system procollagen-I. The data set is described as follows: Immunohistochemical analysis of forearm skin biopsies after topical treatment: procollagen-I expression. The format is in vivo, human. To be noted: compared with placebo forearm.
Source text: as §1, §2

In data set [2] the test system is PGE2. The data set is described as follows: Keratinocyte PGE2 assay (basal release, enzyme-linked immunoassay). It is filed as cell-based. To be noted: 24 hours, unstimulated keratinocytes, n=4, Control 197.9. As for the experimental part: This was then replaced with KGM without hydrocortisone for 24-48 hours. No petroselinic acid was added to the control cells. […] At the end of the incubation the medium was harvested and assayed for the basal release of the pro-inflammatory PGE2 by enzyme-linked immuno assay using a commercial PGE2 kit (Amersham, Buckinghamshire, England).
The anti-inflammatory potential of the test compounds were assessed by the ability of the compounds to reduce the basal levels of secreted PGE2 as compared to the control. Statistical significance was determined using the Student's t-test.

Data set [3] is described as follows: Cell viability assay by neutral red dye absorption in the pigmentation assay. The format is cell-based. To be noted: mouse, b16-f1 cells, n=4, read-out: Neutral Red Cell Viability % Control. As to the method:
(§3) • * Cell maintenance B16-F1 mouse melanoma cells (American Type Culture Collection, Maryland, USA) were maintained in 75 cm^2 culture flasks in RPMI 1640 medium (ICN-Flow, cat. no. 12-60-54) supplemented with L-glutamine (4 mM) and 10% foetal bovine serum (FBS) at 37°C in a water saturated, 5% CO2 in air atmosphere. Cells were passaged twice weekly. • * Pigmentation Assay Subconfluent B16 cells were seeded in 96 well microtiter plates at a density of 5000 cells/well and cultured overnight in DMEM (Life Technologies, NY) containing 10% foetal bovine serum and 1% penicillin/streptomycin without phenol red at 37°C under 5% CO2. After 24 hours, the media was replaced with fresh media containing the test materials or vehicle controls. Cells were incubated for 72 hours at which time melanin was visible in the control wells. Next, the melanin containing media from each well was transferred to a clean 96 well plate and quantified by reading the absorbance at 530 nm using a microplate spectrophotometer (Dynatech MR5000) and correcting for the baseline absorption of fresh medium. As the corrected absorption is proportional to the melanin concentration the percentage pigmentation for a skin lightening test substance can be calculated as: % pigmentation = (OD530 test/OD530 ref) x 100% [formula] where OD530 test and OD530 ref indicate the average corrected absorption of the medium from the wells with the test substance and that of the medium from the wells without the test substance. The percentage inhibition caused by the test substance is then 100 - % pigmentation. • * Cell viability assay Melanin production may be reduced by inhibition of melanogenesis but it may also be affected by cytotoxicity or cell proliferation. To test whether this occurred cell viability was tested by neutral red dye absorption. Neutral red is a water soluble dye that passes through the intact plasma membrane and becomes concentrated in the lysosomes in intact cells. Total neutral red dye uptake is proportional to the number of viable cells in culture. Immediately following the removal of medium for melanin analysis from the microtitre wells, 200 µl fresh prewarmed neutral red dye (ex. Sigma, UK, Cat. Nr 2889) at 25 µg/ml medium was applied to the cells and incubated for 3 hours as for cell maintenance. Dye which had not been taken up by the cells was removed by inversion of the plate and tapping on abscrbent paper. The cells were washed with 200 µl PBS, which was then removed again. 100 µl solvent (50% H2O, 49% ethanol, 1% acetic acid) was added. After 20 minutes at ambient temperature each plate was shaken for 5 seconds on a microtitre plate shaker. The absorption was measured as described above.

The subject of data set [4] is B16-F1 mouse melanoma cells. The data set is described as follows: Pigmentation assay (melanin in media, absorbance at 530 nm). The format is cell-based. To be noted: 72 hours, n=4, read-out: Melanin in Media % Control. As to the method:
as §3

The test system of data set [5] is Keratinocytes. Put plainly: Keratinocyte SDS viability assay (Neutral Red method). It is filed as cell-based. Conditions: 24 hours, n=8. As for the experimental part:
(§4) After incubating for 24 hours the medium was removed and the viability determined by the Neutral Red method.

In data set [6] the test system is Keratinocytes. The data set is described as follows: Keratinocyte viability by neutral red uptake after the PGE2 assay. To be noted: 24 hours, at the concentrations tested (0.1 and 1 µM). It is filed as cell-based. As to the method:
as §4
The cells were then tested for viability by the neutral red up-take method described in example 2 above.

Where [7] appears, read: Group 1 after 14 weeks, 16 participants, 0.05% retinoic acid (Retinova®) daily on outer forearm.
[8] abbreviates: Group 2 after 28 weeks, 15 participants, 0.05% retinoic acid (Retinova®) on outer forearm.

In the data set on PGE2 [1] (PMA (10nM) alone, Control 32±6), `CCCCCCCCCCCCCC(=O)O[C@@H]1[C@@H](C)[C@@]2(O)[C@@H](C=C(CO)C[C@]3(O)C(=O)C(C)=C[C@@H]23)[C@@H]2C(C)(C)[C@]12OC(C)=O` [PMA, phorbal myristate acetate, reference compound] gave a PGE2 of 2371 ± 241 pg/mL.

`CC1=C(/C=C/C(C)=C/C=C/C(C)=C/C(=O)O)C(C)(C)CCC1` [Retinoic Acid, retinoic acid]: the “No. of Participants showing marked increase in expression of decorin” value in the data set on decorin (setting [7]) stood at 10; with decorin (setting [8]) it was 15. The “No. of Participants showing marked increase in expression of procollagen-I” value came to 9 with procollagen-I (setting [7]) and 10 in the data set on procollagen-I (setting [8]).

With `CCCCCCCCCCC/C=C\CCCCC(=O)O` [Petroselinic Acid, Petroselinic acid], the “Keratinocyte PGE2 Levels Mean” value in the data set on PGE2 [2] (PA 0.1 µM) amounted to 150.1 pg/well; with PGE2 [2] (PA 1 µM) it was 117.8 pg/well. In addition, the PGE2 was found to be 500 ± 12 pg/mL in the data set on PGE2 [1] (PMA (10nM) + PA 0.1uM), 486 ± 93 pg/mL in the data set with PGE2 [1] (PMA (10nM) + PA 1uM), 233 ± 139 pg/mL in the data set on PGE2 [1] (PMA (10nM) + PA 10uM) and 117 ± 39 pg/mL in the data set on PGE2 [1] (PMA (10nM) + PA 100uM). Also, the viability at 72 h in data set [3] (0.01%) was 105%; in data set [3] (0.013%) it was 105%; in data set [3] (0.02%), 103%; in data set [3] (0.04%), 69.9%; in data set [3] (0.1%), 1%. In addition, the activity at 0.01 % in data set [4] (0.01%) amounted to 79.5%. Further, the activity at 0.013 % in data set [4] (0.013%) was 40.4%. For the same molecule, the activity at 0.02 % in data set [4] (0.02%) amounted to 55.3%. The activity at 0.04 % in data set [4] (0.04%) stood at 3.9%. Further, in data set [4] (0.1%), the activity at 0.1 % turned out to be 19.3%. For the same molecule, the “Keratinocyte viability % of control Mean” value in the data set with Keratinocytes [5] (SDS 2 µg/ml + PA 0.1 µM) is recorded as 94.5 % of control; with Keratinocytes [5] (SDS 2 µg/ml + PA 1.0 µM), 84.1 % of control; in the data set on Keratinocytes [5] (SDS 2 µg/ml + PA 10 µM), 85.8 % of control. For the same molecule, the Cell viability entry with Keratinocytes [6] is on record as “not found to be adversely effected”.

For `CCCCCCCCCCCCOS(=O)(=O)[O-].[Na+]` [SDS, sodium dodecyl sulphate, reference compound], the “Keratinocyte viability % of control Mean” value with Keratinocytes [5] (SDS 2 µg/ml alone (PA 0 µM)) was 55.8 % of control.

What is called viability is a read-out of living cells in per cent, often relative to untreated cells.

The values above are taken from EP1061896B1, “COSMETIC METHOD OF TREATING SKIN” (UNILEVER PLC, priority 1998, dated 1999).
